pIC50: −log10 of the molar value.
What was measured:
Format in all cases: biochemical
human C1s = molecular target: T1, human C1s (Homo sapiens, UniProt P09871); test: Human C1s enzyme assay; settings: 95% confidence intervals in parentheses
T1 construct: Recombinant human C1s (358–688 aa) fused with both the N-terminal IgG signal peptide; IgG signal peptide (N); His tag (C); made in house; host or cells: HEK293 cells
T1 sequence (P09871 358-688): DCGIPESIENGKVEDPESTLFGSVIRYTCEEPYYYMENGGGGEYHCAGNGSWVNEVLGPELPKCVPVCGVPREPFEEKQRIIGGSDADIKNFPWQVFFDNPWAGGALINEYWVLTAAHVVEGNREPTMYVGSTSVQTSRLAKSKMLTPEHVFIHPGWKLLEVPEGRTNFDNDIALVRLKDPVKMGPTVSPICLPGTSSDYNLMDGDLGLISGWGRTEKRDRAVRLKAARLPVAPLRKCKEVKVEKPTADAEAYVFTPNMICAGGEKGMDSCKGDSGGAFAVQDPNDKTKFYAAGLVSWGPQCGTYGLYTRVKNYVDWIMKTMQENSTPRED
Description: Recombinant human C1s (358–688 aa) fused with both the N-terminal IgG signal peptide and the C-terminal His tag was expressed in HEK293 cells and purified. The assay was performed in a 384-well clear plate in a total volume of 20 μL of an assay buffer 1 [50 mmol/L Tris–HCl (pH 7.5), 150 mmol/L NaCl, 0.01% (w/v) Tween 20, and 0.01% (w/v) BSA]. Compounds were dissolved in DMSO and diluted to various concentrations. After 20 nL of compound solution was added to the plate, 10 μL of substrate solution containing a 250 μmol/L Z-Lys-SBzl peptide (Watanabe Chemical, Hiroshima, Japan) and 250 μmol/L DTNB (5,5′-dithiobis(2-nitrobenzoic acid)) (Sigma, MO, USA) was added to the plate. Then, 8 nmol/L human C1s was added to the plate and incubated at room temperature for 60 min. The absorbance at 405 nm was detected using an EnVision multilabel plate reader. […] The IC50 values were calculated using IDBS XLfit software.

mouse C1s = molecular target: T2, mouse C1s (Mus musculus, UniProt Q8CG14); test: Mouse C1s enzyme assay; settings: supplementary csv
T2 construct: Recombinant mouse C1s (22–694 aa) fused with both the N-terminal IgG signal peptide; IgG signal peptide (N); His tag (C); made in house; host or cells: Expi293 cells
T2 sequence (Q8CG14 438-688 limits assumed): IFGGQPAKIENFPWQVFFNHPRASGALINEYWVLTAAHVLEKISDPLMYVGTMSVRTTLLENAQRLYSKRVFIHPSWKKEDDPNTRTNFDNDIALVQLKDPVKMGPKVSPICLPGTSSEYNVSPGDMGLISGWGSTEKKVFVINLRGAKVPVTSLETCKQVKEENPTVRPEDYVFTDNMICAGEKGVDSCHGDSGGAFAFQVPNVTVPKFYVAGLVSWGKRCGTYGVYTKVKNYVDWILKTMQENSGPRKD
T2 sequence (Q8CG14 16-437 partner limits assumed): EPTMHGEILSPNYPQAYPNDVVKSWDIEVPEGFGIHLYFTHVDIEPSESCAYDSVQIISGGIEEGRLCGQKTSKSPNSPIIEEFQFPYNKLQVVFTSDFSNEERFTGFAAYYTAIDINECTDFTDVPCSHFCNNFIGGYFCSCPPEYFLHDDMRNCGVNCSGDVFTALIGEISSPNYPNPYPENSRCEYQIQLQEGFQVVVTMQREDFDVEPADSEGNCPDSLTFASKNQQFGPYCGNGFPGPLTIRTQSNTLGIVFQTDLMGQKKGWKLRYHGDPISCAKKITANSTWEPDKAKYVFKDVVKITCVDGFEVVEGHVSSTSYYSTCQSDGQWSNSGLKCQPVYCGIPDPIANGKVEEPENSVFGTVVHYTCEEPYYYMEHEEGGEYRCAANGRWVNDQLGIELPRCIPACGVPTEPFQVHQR
Text: Recombinant mouse C1s (22–694 aa) fused with both the N-terminal IgG signal peptide and the C-terminal His tag was expressed in Expi293 cells and purified. Mouse C1s was activated by recombinant human C1r prior to use. Mouse C1s assay conditions were the same as for human C1s, except that the enzyme solution concentration was 30 nmol/L.

human factor D = molecular target: T3, human factor D (Homo sapiens, UniProt P00746); test: Human factor D enzyme assay; settings: supplementary csv
T3 construct: Recombinant human factor D (26–253 aa) fused with both the N-terminal IgG signal peptide; IgG signal peptide (N); His tag (C); made in house; host or cells: Expi293 cells
Text: Recombinant human factor D (26–253 aa) fused with both the N-terminal IgG signal peptide and the C-terminal His tag was expressed in Expi293 cells and purified. The human factor D assay condition was the same as for human MASP2, except that the enzyme solution concentration was 20 nmol/L and the substrate solution contained a 400 μmol/L Z-Lys-SBzl peptide and 50 μmol/L BES-Thio.

human plasmin = molecular target: T4, human plasmin (Homo sapiens, UniProt P00747); test: Human plasmin enzyme assay; settings: supplementary csv
T4 construct: purchased Zedira
Description: Recombinant human plasmin (Zedira, Hesse, Germany) and the substrate were diluted in an assay buffer [50 mmol/L Tris–HCl (pH 7.5), 150 mmol/L NaCl, and 0.01% (w/v) Tween 20]. Compounds were dissolved in DMSO and then diluted in an assay buffer. After 5 μL of compound solution was added to a 384-well black plate, 5 μL of substrate solution containing 75 μmol/L Boc-Val-Leu-Lys-MCA (Peptide Institute, Osaka, Japan) was added to the plate. Then, 11.25 nmol/L human plasmin was added to the plate and incubated at room temperature for 60 min. The fluorescence at an excitation wavelength of 380 nm and an emission wavelength of 460 nm was detected using an EnVision multilabel plate reader.

[1] = tested on: C5b-9 MAC formation induced by human serum; test: C5b-9 MAC complex formation study (Wieslab classical pathway kit); settings: in vitro, dose-dependent
Description: The levels of the complement activation product C5b-9 MAC were determined by a Wieslab complement system classical pathway kit (Svar Life Science, Malmo, Sweden). Briefly, diluted human serum was preincubated with the reagent diluent containing 0.3% DMSO or a range of concentrations of C1s inhibitors for 10 min at room temperature. Then, the preincubated serum was added to each well, and the plate was incubated for 30 min at 37 ° C with a lid. The plate was then washed three times, and subsequent processes were conducted by following the manufacturer’s instructions. Lastly, the absorbance was measured with a Multiskan microplate photometer (Thermo Fisher Scientific, MA, USA), and the levels of complement activation were calculated based on the standard curve generated with calibrators with serially diluted human serum. The samples with serum treatment were set as 100%, and the activities of the negative control (NC) without the addition of serum were set as 0%.

T3 sequence (P00746 26-253): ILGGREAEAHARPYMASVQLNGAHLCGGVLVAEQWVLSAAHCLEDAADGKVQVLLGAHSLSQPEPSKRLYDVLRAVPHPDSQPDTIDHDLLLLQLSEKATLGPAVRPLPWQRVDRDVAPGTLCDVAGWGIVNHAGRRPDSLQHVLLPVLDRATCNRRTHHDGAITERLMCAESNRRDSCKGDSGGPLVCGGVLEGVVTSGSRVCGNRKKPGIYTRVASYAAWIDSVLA
T4 sequence (P00747 581-810 limits assumed): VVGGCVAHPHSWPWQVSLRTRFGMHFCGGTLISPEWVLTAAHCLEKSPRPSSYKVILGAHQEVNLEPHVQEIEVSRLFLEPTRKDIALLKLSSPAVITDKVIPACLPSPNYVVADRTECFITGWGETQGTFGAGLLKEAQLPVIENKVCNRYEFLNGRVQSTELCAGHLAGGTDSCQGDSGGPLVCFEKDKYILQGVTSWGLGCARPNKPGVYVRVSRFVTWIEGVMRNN

For `Cc1cc([C@H]2CN(c3cc(F)c4c(N)nncc4c3)CCN2c2cccc(F)c2)no1` [Compound (R)-8, 8-Fluoro-6-[(3R)-4-(3-fluorophenyl)-3-(5-methyl-1,2-oxazol-3-yl)piperazin-1-yl]phthalazin-1-amine], the pIC50 (human C1s) was 7.44, the pIC50 (mouse C1s) was 7.21 and the pIC50 (human factor D) was < 4.52. The pIC50 (human plasmin) was < 4.52 and the “Inhibition of MAC formation induced by human serum” value [1] was “significantly inhibited”.
